{
  "source": "patent US10537531B2",
  "about": "“Casein coated drug-loaded iron oxide nanoparticles” (Emory University, priority 2014, dated 2020)",
  "tested_on": "Caco-2 cells",
  "assay": "Uptake by Caco-2 cell monolayer (fluorescence microscopy of DOX)",
  "assay_type": "cell-based",
  "details": "Caco-2 monolayer, 17.2 μm, 10 min incubation",
  "experimental": "To investigate the cellular uptake of the released DOX from CN-DOX-IO by the small intestine in vitro, the monolayer of Caco-2 cells was incubated with CN-DOX-IO at a dosage of 17.2 μm for different lengths of time (10, 30 and 60 min). For comparison, cells incubated with DOX-IO and DOX were examined as controls. The intracellular accumulation of DOX was examined by the fluorescent microscope utilizing the fluorescence of DOX.",
  "data": [
    {"smiles": "COc1cccc2c1C(=O)c1c(O)c3c(c(O)c1C2=O)C[C@@](O)(C(=O)CO)C[C@@H]3O[C@H]1C[C@H](N)[C@H](O)[C@H](C)O1", "note": "[free DOX, doxorubicin]", "values": [
      {"measurement": "intracellular localisation of DOX fluorescence signal", "result": "observed in the nucleus"}
    ]}
  ]
}
